Measurements published in patent US20260042731A1, “(2,4-DICHLOROPHENOXY)ACETIC ACID ANALOGS” (CORTEVA AGRISCIENCE LLC, priority 2022, published 2026).
Read-outs that look alike come from different tables or passages of the source.

Experiments:
[1] = Volatility of compounds measured by thermogravimetric analysis (TGA); format: physicochemical
[2] = system: Ambrosia artemisiifolia (AMBEL), common ragweed; assay: Postemergence herbicide evaluation, growth of Ambrosia artemisiifolia (AMBEL); format: in vivo; conditions: Ambrosia artemisiifolia, post-emergence, read-out: AVE. AMBEL, percent reduction in plant size relative to the untreated control; for pest or weed control at 280 g/ha: 280 g ae/ha; for pest or weed control at 560 g/ha: 560 g ae/ha
[3] = system: Amaranthus rudis (AMATA), tall water hemp; assay: Postemergence herbicide evaluation, growth of Amaranthus rudis (AMATA); format: in vivo; conditions: Amaranthus tuberculatus, post-emergence, read-out: Ave. AMATA, percent reduction in plant size relative to the untreated control; for pest or weed control at 280 g/ha: 280 g ae/ha; for pest or weed control at 560 g/ha: 560 g ae/ha
[4] = system: glyphosate resistant Conyza canadensis (L.) (ERICA), horseweed; assay: Postemergence herbicide evaluation, growth of Conyza canadensis (ERICA); format: in vivo; conditions: Erigeron canadensis, post-emergence, read-out: Ave. ERICA, percent reduction in plant size relative to the untreated control; for pest or weed control at 280 g/ha: 280 g ae/ha; for pest or weed control at 560 g/ha: 560 g ae/ha
[5] = system: weeds ABUTH, AMATA, AMBEL, CHEAL, ERICA; assay: Postemergence herbicide evaluation, overall average % weed control (ABUTH, AMATA, AMBEL, CHEAL, ERICA); format: in vivo; conditions: post-emergence, read-out: Overall Ave % Weed Control; for pest or weed control at 280 g/ha: 280 g ae/ha; for pest or weed control at 560 g/ha: 560 g ae/ha
[6] = system: Abutilon theophrasti (ABUTH), velvetleaf; assay: Postemergence herbicide evaluation, growth of Abutilon theophrasti (ABUTH); format: in vivo; conditions: Abutilon theophrasti, post-emergence, read-out: AVE. ABUTH, percent reduction in plant size relative to the untreated control; for pest or weed control at 280 g/ha: 280 g ae/ha; for pest or weed control at 560 g/ha: 560 g ae/ha
[7] = system: Chenopodium album (CHEAL), common lambsquarters; assay: Postemergence herbicide evaluation, growth of Chenopodium album (CHEAL); format: in vivo; conditions: Chenopodium album, post-emergence, read-out: Ave. CHEAL, percent reduction in plant size relative to the untreated control; for pest or weed control at 280 g/ha: 280 g ae/ha; for pest or weed control at 560 g/ha: 560 g ae/ha

| SMILES | TGA Data (rate of weight loss, volatility) [1] [µg/min] | pest or weed control at 280 g/ha ([2]; 168 h, 7 DAA) [%] | pest or weed control at 560 g/ha ([2]; 168 h, 7 DAA) [%] | pest or weed control at 280 g/ha ([2]; 336 h, 14 DAA) [%] | pest or weed control at 560 g/ha ([2]; 336 h, 14 DAA) [%] | pest or weed control at 280 g/ha ([2]; 504 h, 21 DAA) [%] | pest or weed control at 560 g/ha ([2]; 504 h, 21 DAA) [%] | pest or weed control at 280 g/ha ([3]; 168 h, 7 DAA) [%] | pest or weed control at 560 g/ha ([3]; 168 h, 7 DAA) [%] | pest or weed control at 280 g/ha ([3]; 336 h, 14 DAA) [%] | pest or weed control at 560 g/ha ([3]; 336 h, 14 DAA) [%] | pest or weed control at 280 g/ha ([3]; 504 h, 21 DAA) [%] | pest or weed control at 560 g/ha ([3]; 504 h, 21 DAA) [%] | pest or weed control at 280 g/ha ([4]; 168 h, 7 DAA) [%] | pest or weed control at 560 g/ha ([4]; 168 h, 7 DAA) [%] | pest or weed control at 280 g/ha ([4]; 336 h, 14 DAA) [%] | pest or weed control at 560 g/ha ([4]; 336 h, 14 DAA) [%] | pest or weed control at 280 g/ha ([4]; 504 h, 21 DAA) [%] | pest or weed control at 560 g/ha ([4]; 504 h, 21 DAA) [%] | pest or weed control at 280 g/ha ([5]; 168 h, 7 DAA) [%] | also measured |
| --- | --- | --- | --- | --- | --- | --- | --- | --- | --- | --- | --- | --- | --- | --- | --- | --- | --- | --- | --- | --- | --- |
| O=C(COc1ccc(Cl)cc1Cl)Nc1nccs1 [Compound D24] | 0.08298 | 77.5 | 67.5 | 80 | 92.5 | 100 | 100 | 80 | 85 | 87.5 | 85 | 77.5 | 92.5 | 70 | 75 | 95 | 87.5 | 97.5 | 99.5 | 70 | pest or weed control at 560 g/ha ([5]; 168 h, 7 DAA): 70%; pest or weed control at 280 g/ha ([5]; 336 h, 14 DAA): 81.5%; pest or weed control at 560 g/ha ([5]; 336 h, 14 DAA): 84.5%; pest or weed control at 280 g/ha ([5]; 504 h, 21 DAA): 87%; pest or weed control at 560 g/ha ([5]; 504 h, 21 DAA): 91.4%; pest or weed control at 280 g/ha ([6]; 168 h, 7 DAA): 40%; pest or weed control at 560 g/ha ([6]; 168 h, 7 DAA): 47.5%; pest or weed control at 280 g/ha ([6]; 336 h, 14 DAA): 55%; pest or weed control at 560 g/ha ([6]; 336 h, 14 DAA): 65%; pest or weed control at 280 g/ha ([6]; 504 h, 21 DAA): 70%; pest or weed control at 560 g/ha ([6]; 504 h, 21 DAA): 70%; pest or weed control at 280 g/ha ([7]; 168 h, 7 DAA): 82.5%; pest or weed control at 560 g/ha ([7]; 168 h, 7 DAA): 75%; pest or weed control at 280 g/ha ([7]; 336 h, 14 DAA): 90%; pest or weed control at 560 g/ha ([7]; 336 h, 14 DAA): 92.5%; pest or weed control at 280 g/ha ([7]; 504 h, 21 DAA): 90%; pest or weed control at 560 g/ha ([7]; 504 h, 21 DAA): 95% |
| Cc1nccc(NC(=O)COc2ccc(Cl)cc2Cl)c1C [Compound D26] | 0.09713 | 75 | 90 | 70 | 85 | 100 | 100 | 72.5 | 85 | 88.5 | 87.5 | 75 | 87.5 | 57.5 | 60 | 91.5 | 100 | 62.5 | 72.5 | 64.5 | pest or weed control at 560 g/ha ([5]; 168 h, 7 DAA): 73.5%; pest or weed control at 280 g/ha ([5]; 336 h, 14 DAA): 77.5%; pest or weed control at 560 g/ha ([5]; 336 h, 14 DAA): 83%; pest or weed control at 280 g/ha ([5]; 504 h, 21 DAA): 78.5%; pest or weed control at 560 g/ha ([5]; 504 h, 21 DAA): 85%; pest or weed control at 280 g/ha ([6]; 168 h, 7 DAA): 42.5%; pest or weed control at 560 g/ha ([6]; 168 h, 7 DAA): 55%; pest or weed control at 280 g/ha ([6]; 336 h, 14 DAA): 52.5%; pest or weed control at 560 g/ha ([6]; 336 h, 14 DAA): 65%; pest or weed control at 280 g/ha ([6]; 504 h, 21 DAA): 62.5%; pest or weed control at 560 g/ha ([6]; 504 h, 21 DAA): 70%; pest or weed control at 280 g/ha ([7]; 168 h, 7 DAA): 75%; pest or weed control at 560 g/ha ([7]; 168 h, 7 DAA): 77.5%; pest or weed control at 280 g/ha ([7]; 336 h, 14 DAA): 85%; pest or weed control at 560 g/ha ([7]; 336 h, 14 DAA): 77.5%; pest or weed control at 280 g/ha ([7]; 504 h, 21 DAA): 92.5%; pest or weed control at 560 g/ha ([7]; 504 h, 21 DAA): 95% |
